Test results from patent US9539367B2, “Gallium inhibits biofilm formation” (priority 2003, dated 2017).
pIC50: −log10 of the molar value. Like-named read-outs stand apart in the source and are kept apart here.

Key:
[1] = patients with cancer-related hypercalcemia; cited from earlier work
[2] = tested on: intraphagosomal M. tuberculosis; assay: 59Fe acquisition by M. tuberculosis within macrophage phagosomes; assay type: cell-based; conditions: 10 μM Ga(NO3)3; 59Fe transferrin
Protocol: FIG. 6. Ga-transferrin inhibits Fe acquisition by M. tuberculosis within macrophage phagosomes in a concentration-dependent manner. ^59Fe transferrin (10 μM) was added to M. tuberculosis-containing MDMs in the absence (control) or the presence of the indicated concentrations of Ga-transferrin for 24 h MDMs were lysed, and the lysates were filtered through a 0.22-μm (pore-size) filter. M. tuberculosis-associated radioactivity (expressed in cpm) on the filter was determined. Shown are the cpm values as a function of the Ga concentration added from a representative experiment.
Fe-TF is the major form of extracellular Fe, and transport of exogenously added TF to the M. tuberculosis-containing phagosome of human macrophages (Clemens et al., 1996) has been observed. It was therefore hypothesized that gallium competes with Fe uptake by bacteria dividing within the phagosome. […] This was not due to differences in total MDM ^59Fe.
In two recent preliminary experiments, MDM monolayers were preloaded with either ^59Fe or ^67Ga or both (pulse/chase, 24 h each). Erdman M. tuberculosis was then added. After 48 h, bacteria isolated from the phagosome were assessed for associated iron or gallium. Each metal could be found specifically associated with the bacteria.

P. aeruginosa biofilm = assay: Biofilm formation of GFP-labeled P. aeruginosa in continuous culture flow cells; assay type: cell-based
P. aeruginosa [3] = assay: P. aeruginosa growth in 1:100 strength TSB medium (A600); conditions: batch culture
Protocol: Effect of gallium on the growth of P. aeruginosa. Bacteria were inoculated in 1:100 strength TSB medium with the indicated concentrations of gallium and grown at 37° C. with shaking. Growth was monitored as the change in A600 over 15 h.

[4] = tested on: M. tuberculosis within human monocyte-derived macrophages (MDM); assay type: cell-based
IdeR = IdeR (Mycobacterium tuberculosis, UniProt P9WMH1); assay: IdeR DNA binding, gel mobility shift assay with HisE promoter region; design: species or system M. tuberculosis; conditions: for IdeR binding to HisE promoter DNA fragment: 200 μM
Source text: The iron regulatory element, IdeR, regulates the production of catalase, SOD, and siderophores in mycobacteria (Dussurget et al., 1996) in a manner analogous to P. aeruginosa Fur. In order for DNA binding to occur, IdeR must be complexed with a divalent metal such as Fe^2+ or Ni^2+. The effect of Ga(NO3)3 on the binding (gel mobility shift assay) of IdeR was examined using the HisE promoter region from M. tuberculosis that contains a high affinity IdeR binding site (Schmitt et al., 1995). […] A similar lack of binding of Ga^3+ to P. aeruginosa Fur is expected based on these findings.

[5] = human, in vivo; read-out: peak levels achieved clinically; cited from earlier work
[6] = tested on: P. aeruginosa strain PA01; assay: P. aeruginosa growth in iron-supplemented succinate media (A600); assay type: cell-based; conditions: 100 nM gallium
Protocol: FIG. 7. P. aeruginosa was inoculated to an OD (A600) of about 0.010 into succinate media alone or with FeCl3 supplementation +/− the Ga chelates.
P. aeruginosa growth is dependent on the addition of exogenous Fe (FIG. 7). […] When gallium, either in the form of Ga(NO3)3 or Ga-TF, was added to iron-supplemented succinate media at concentrations ≧1 μM, a gallium concentration-dependent inhibition of P. aeruginosa growth was observed (FIG. 7). […] Similar results were observed under different conditions (see below).

Erdman M. tuberculosis [7] = assay: 59Fe acquisition by M. tuberculosis in 7H9 medium; assay type: cell-based; conditions: 500 nM 59Fe-citrate, 6 h
Protocol: FIGS. 4A-4B. […] Erdman M. tuberculosis (2×10^7 ml) was incubated for 6 h in 7H9 medium (without added Fe and OADC) with 500 nM ^59Fe-citrate (FIG. 4A) or ^67Ga-citrate (FIG. 4B) in the absence or presence of the indicated concentrations of cold competing metal. The bacteria were then washed repeatedly, and bacterium-associated ^67Ga or ^59Fe levels were determined. Results are shown as the amount of metal acquired as a function of increasing concentrations of the cold competing metal. Experimental groups were performed in triplicate, and the data shown represent three independent experiments (mean±SEM).

established biofilms = assay: Killing of established three-day-old biofilms, viability by propidium iodide; assay type: cell-based, P. aeruginosa; conditions: 10 μM, 100 μM, 1000 μM; 12, 24, 48, 72 hours
Protocol: FIGS. 10A-10D. Gallium kills established biofilms. Three-day-old biofilms were exposed to gallium in concentrations of 10 μM, 100 μM, and 1000 μM. Biofilm viability was assessed with propidium iodide, and observations were recorded at 12 hours (FIG. 10A), 24 hours (FIG. 10B), 48 hours (FIG. 10C), and 72 hours (FIG. 10D).
Three-day-old biofilms were exposed to gallium in concentrations of 10 μM, 100 μM, and 1000 μM. The biofilm viability was assessed with propidium iodide, and observations were recorded at 12 hours (FIG. 10A), 24 hours (FIG. 10B), 48 hours (FIG. 10C), and 72 hours (FIG. 10D).

M. tuberculosis RR [8] = target: T1, M. tuberculosis RR (Mycobacterium tuberculosis, UniProt P9WH71); assay: Radiolabeled CDP reduction assay for ribonucleotide reductase activity; assay type: biochemical; conditions: n=2; read-out: concentration that inhibited RR activity by 50%
M. tuberculosis RR [9] = target: T1, M. tuberculosis RR; conditions: Yang et al., 1997; read-out: IC50, RR inhibition; cited from earlier work
P. aeruginosa [10] = conditions: cited from earlier work
Erdman M. tuberculosis [11] = assay type: cell-based; conditions: liquid media

IdeR, sequence (P9WMH1 whole entry, the tested form may be a part): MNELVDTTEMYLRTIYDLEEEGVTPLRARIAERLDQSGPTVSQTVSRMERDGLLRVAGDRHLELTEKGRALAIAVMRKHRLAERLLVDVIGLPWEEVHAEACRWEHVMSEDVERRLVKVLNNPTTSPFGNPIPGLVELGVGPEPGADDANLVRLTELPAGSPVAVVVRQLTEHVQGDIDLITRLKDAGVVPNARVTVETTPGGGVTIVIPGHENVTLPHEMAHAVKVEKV
T1 sequence (P9WH71 whole entry): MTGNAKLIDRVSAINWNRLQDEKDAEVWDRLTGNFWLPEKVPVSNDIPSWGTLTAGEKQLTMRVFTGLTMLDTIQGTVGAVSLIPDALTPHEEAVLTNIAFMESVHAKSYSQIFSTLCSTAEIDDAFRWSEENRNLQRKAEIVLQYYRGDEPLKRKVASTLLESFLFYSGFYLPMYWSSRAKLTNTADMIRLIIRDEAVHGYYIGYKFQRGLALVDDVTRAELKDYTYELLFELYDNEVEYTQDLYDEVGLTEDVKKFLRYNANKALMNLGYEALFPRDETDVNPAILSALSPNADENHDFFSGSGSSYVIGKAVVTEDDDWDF

## O=[N+]([O-])[O-].O=[N+]([O-])[O-].O=[N+]([O-])[O-].[Ga+3] [Ga(NO3)3, gallium nitrate]
[1]
  tolerability: well tolerated
[2]
  59Fe acquisition by intraphagosomal M. tuberculosis: markedly decreased
P. aeruginosa biofilm; 0.3 μM Ga(NO3)3 (sub-inhibitory), up to 4 days
  effect on P. aeruginosa biofilm formation: subsequent steps in biofilm formation were inhibited
P. aeruginosa [3]
  concentration above which growth rate of P. aeruginosa significantly decreased: exceeded 1 μM

## O=[N+]([O-])[O-].[Na+] [NaNO3, reference compound]
[4]; nitrate control
  effect on mycobacterial growth within macrophages: no effect

## [Ni+2] [Ni^2+, reference compound]
IdeR
  IdeR binding to HisE promoter DNA fragment: binding was observed

## CC(C)(O/N=C(\C(=O)N[C@@H]1C(=O)N2C(C(=O)[O-])=C(C[n+]3ccccc3)CS[C@H]12)c1csc(N)n1)C(=O)O [ceftazidime, reference compound]
P. aeruginosa biofilm; sub-inhibitory concentration, 0.25 μg/ml
  effect on P. aeruginosa biofilm development: did not inhibit biofilm development

## [Ga+3] [gallium]
[5]
  Cmax: 140 to 700 µM
[6]
  effect on P. aeruginosa growth: did not inhibit growth
Erdman M. tuberculosis [7]
  competition for M. tuberculosis acquisition of 59Fe: highly effective in competing
IdeR
  interference with Ni2+ or Fe2+ activation of IdeR binding: did not interfere
  IdeR binding to HisE promoter DNA fragment: did not lead to IdeR binding
Established biofilms
  killing of established biofilms: kills established biofilms in a time and concentration dependent manner
M. tuberculosis RR [8]
  pIC50: 3.35
[4]; extracellularly and even more so intracellularly in macrophages
  bactericidal activity for M. tuberculosis: bactericidal

## NC(=O)NO [hydroxyurea]
M. tuberculosis RR [9]
  pIC50: 2.30 to 2.52

## NC[C@H]1O[C@H](O[C@H]2[C@H](O)[C@@H](O[C@H]3O[C@H](CO)[C@@H](O)[C@H](N)[C@H]3O)[C@H](N)C[C@@H]2N)[C@H](N)C[C@@H]1O [tobramycin]
P. aeruginosa [10]; levels far in excess of the MIC, biofilm cells
  reduction of biofilm cell counts: approximately 2 logs
P. aeruginosa [10]; same dosage, planktonic cells
  decrease in planktonic cells: > 8 log

## Ga-TF: gallium chelated by serum transferrin (TF)
Erdman M. tuberculosis [11]
  inhibiting mycobacterial growth compared with Ga(NO3)3: as effective as Ga(NO3)3
[4]; within human macrophages
  inhibiting mycobacterial growth compared with Ga(NO3)3: as effective as Ga(NO3)3
